Results: patent US20070037800A1, “Method of treating neurological disorders using clotrimazole and derivatives thereof” (EnVivo Pharmaceuticals, Inc., priority 2005, published 2007)
Several values for one entry are separate records, joined by “and”; a condition that tells them apart may be missing. Identical values can stand only once.

Assays:
[1] = tested on: HD model flies (elav-GAL4 UAS-htt128Q); experiment: Assay of locomotor activity (climbing speed) using the transgenic Drosophila HD model; format: in vivo; design: Early Speed Effect Size, Summary / Late Speed Effect Size, Summary / Early Speed Effect Size / Late Speed Effect Size / Early Speed Adj Value / Late Speed Adj Value / Early Speed Effect Size, combined campaigns / Late Speed Effect Size, combined campaigns: unit not given here; conditions: for Early Speed Effect Size, combined campaigns / Early Speed Percent TSA, combined campaigns / Late Speed Effect Size, combined campaigns / Late Speed Percent TSA, combined campaigns: drawing 84, drawing 89
Description: Female “activator” or “driver” flies were engineered to contain the neuronal specific drivers elav-GAL4 or nirvana-GAL4 in a heat shock-hid Y (phs-hidY or HS-hid+ on Y chomosome) background (Starz-Gaiano et al., 2001). The hid gene is a pro-apoptotic gene, which is expressed in this line by a heat inducible promoter. These flies can be heat shocked in bottles twice over 2 days for 2 hours to kill male larvae and thereby produce massive numbers of elav-GAL4 or nirvana-GAL4 virgin females.
For the mass production of males (either UAS-htt128Q[F27B]/UAS-htt128Q[F27B], the disease transgenes were moved into lines that contain an attached X-chromosome with the same phs-hid element (X^XPhs-hidY) used above. In this scheme the hid gene is present only in female flies and therefore is used to produce large numbers of male flies by heat shock. The massive collection of virgin female elav-GAL4 flies are crossed with the massive collection of males that contain the silent disease-transgene. Their progeny, the F1 generation, are the “assay flies” (e.g., elav-GAL4UAS-htt128Q[F27B]). These assay flies are robotically distributed into drugged assay vials.
The HD Drosophila model express exons 1 to 4 of the human huntingtin gene with 128Q repeats in exon 1. The construct was cloned into the Drosophila transformation vector, pUAST. These were then crossed to GAL4 driver lines that direct expression either to the eye (GMR-GAL4 promoter) or to neurons (elav-GAL4 promoter). […] Progressive degeneration of the photoreceptors was observed after several days of adult life. The properties of the HD128Q flies were consistent with those reported by others for two other strains in which exon-1 containing expanded repeats was expressed in the eye (Jackson et al., 1998; Steffan et al., 2001—US20040142859). To test the effects on motor function of the HD mutation, HD128Q lines were examined in which the transgene was expressed in all neurons. Motor function was assayed by tapping flies in a vial to the bottom and measuring the number of flies that are able to climb to a specified height within a specific length of time. When tapped to the bottom of a vial, wild-type flies rapidly climb to the top, where most of them remain. […] The decline in motor performance was progressive, leading to early death. […] The HD128Q model thus has a functional deficit that in its phenotypic and neuropathological characteristics appears to be related to that seen in the human disease. Moreover, as the deficit is quantifiable and reproducible, it is suitable for automated high-throughput screening.
Standard environmental conditions were followed to establish that different metrics detect differences between disease and control flies. A comparison of compound-treated HD flies and untreated HD flies was also included. The positive control compound tested was the Histone Deacetylase (HDAC) inhibitor Trichostatin-A (TSA).
In an assay run (typically corresponding to one day of an entire multi-day assay) the following process was followed. Each tube was dropped onto a surface, causing the flies to fall to the bottom of the tube and be subjected to impact shock stimulation. Their immediate negative geotaxis response to that event was thereafter captured in a 7.5 second movie. For each tube, this step was repeated five times, giving a total of five repeat videos per tube and run. The raw data for each video were analyzed and trajectories following the movements of individual flies in a tube were generated. The method for analyzing fly trajectories is described in published U.S. Patent Application 2004/0076318A1, which is hereby incorporated by reference in its entirety. The trajectories consisted of a list of x- and y-coordinates mapping out the positions of all the flies in the video, as well as measurements of size, orientation, length and width of the flies, with one list entry for every frame from when the fly started moving in one frame until it stopped in another. […]

[2] = tested on: KA-induced lesion in C57B1/6N mice; conditions: intra-striatal KA, Cosi et al., 2004; cited from earlier work
[3] = food conc 100, days 8 to 10, vs DMSO carrier, single campaigns
[4] = food conc 200, campaign drawing 91, day range not given, late by column position
[5] = conc 100, days 1 to 7, campaigns drawing 83
[6] = conc 100, days 8 to 10, campaigns drawing 83
[7] = conc 300, days 1 to 7, campaigns drawing 80, drawing 83, drawing 85, drawing 88
[8] = conc 300, days 8 to 10, campaigns drawing 80, drawing 83, drawing 85, drawing 88
[9] = food conc 100 (unit not printed; b38: μM), days 1 to 7, single campaigns
[10] = food conc 100, days 8 to 10, single campaigns
[11] = conc 100, days 1 to 7, campaigns drawing 80, drawing 83, drawing 88
[12] = conc 100, days 8 to 10, campaigns drawing 80, drawing 83, drawing 88

Structure (SMILES): Fc1ccc(C(c2ccccc2)(c2ccc(F)cc2)n2ccnc2)cc1
- Early Speed Effect Size ([1]; food conc 50 (unit not printed; b38: μM), days 1 to 7, vs DMSO carrier, single campaigns): 0.31
- Early Speed Percent TSA ([1]; food conc 50, days 1 to 7, effect size as percentage of positive control TSA, single campaigns): 16.8%
- Late Speed Percent TSA ([1]; food conc 50, days 8 to 10, effect size as percentage of TSA, single campaigns): 12.5%
- Late Speed Effect Size ([1]; food conc 50, days 8 to 10, vs DMSO carrier, single campaigns): 0.33
- Early Speed Percent TSA ([1]; food conc 100, days 1 to 7, effect size as percentage of TSA, single campaigns): 56.8%
- Early Speed Effect Size ([1]; food conc 100, days 1 to 7, vs DMSO carrier, single campaigns): 1.04
- Late Speed Percent TSA ([1]; food conc 100, days 8 to 10, effect size as percentage of TSA, single campaigns): 49.9%
- Late Speed Effect Size [1, 3]: 1.32
- Early Speed Effect Size ([1]; food conc 200 (unit not given), campaign drawing 91, day range not given, early by column position): 1.23
- Early Speed Percent TSA ([1]; food conc 200, campaign drawing 91, day range not given, early by column position): 67.2%
- Late Speed Effect Size [1, 4]: 0.8
- Late Speed Percent TSA [1, 4]: 30.2%

Structure (SMILES): FC(F)(F)c1cccc(C(c2ccccc2)(c2ccccc2)n2ccnc2)c1 [1-(3-(TRIFLUOROMETHYL)TRITYL)IMIDAZOLE, 1-(3-(trifluoromethyl)trityl)imidazole]
- Early Speed Effect Size, combined campaigns [1, 5]: −0.159
- Early Speed Percent TSA, combined campaigns [1, 5]: −4.3%
- Late Speed Effect Size, combined campaigns [1, 6]: 0.344
- Late Speed Percent TSA, combined campaigns [1, 6]: 7.6%
- Early Speed Effect Size, combined campaigns [1, 7]: 1.003
- Early Speed Percent TSA, combined campaigns [1, 7]: 45.6%
- Late Speed Effect Size, combined campaigns [1, 8]: 1.798
- Late Speed Percent TSA, combined campaigns [1, 8]: 68.2%
- Early Speed Adj Value [1, 9]: 10.37 and 10.38 and 10.47
- Late Speed Adj Value [1, 10]: 5.094 and 5.776 and 5.811
- Early Speed Adj Value ([1]; food conc 300 (unit not given), days 1 to 7, single campaigns): 11.11 and 10.33 (2×) and 10.9 and 11.1 and 11.02
- Late Speed Adj Value ([1]; food conc 300, days 8 to 10, single campaigns): 7.096 and 5.024 and 5.921 and 7.137 and 6.976 and 6.601
- Late Speed Effect Size ([1]; food conc 300, days 8 to 10, vs DMSO carrier, single campaigns): 2.88 and 1.62 and 1.96

Structure (SMILES): Cl.FC(F)(F)c1cccc(C(c2ccccc2)(c2ccccc2)n2ccnc2)c1 [1-(3-(trifluoromethyl)trityl)imidazole hydrochloride]
- Effect in Drosophila model of HD ([1]; vs carrier controls, metrics early speed (days 1-7) and late speed (days 8-10)): had therapeutic effect

Structure (SMILES): c1ccc(C(c2ccccc2)(c2ccccc2)n2ccnc2)cc1 [1-triphenylmethyl imidazole]
- Early Speed Effect Size, combined campaigns [1, 11]: 0.186
- Early Speed Percent TSA, combined campaigns [1, 11]: 9.6%
- Late Speed Effect Size, combined campaigns [1, 12]: 0.179
- Late Speed Percent TSA, combined campaigns [1, 12]: 6.9%
- Early Speed Adj Value [1, 9]: 10.62 and 9.998 and 10.71 and 11.18 and 10.51 and 10.31
- Early Speed Adj Value ([1]; food conc 100 (unit not printed; b38: μM), days 1 to 7, single campaigns, listed as 1-(triphenylmethyl)imidazole): 10.62 and 10.71
- Late Speed Adj Value [1, 10]: 5.547 and 5.811 and 4.932 and 5.407 and 5.092 and 5.877
- Late Speed Adj Value ([1]; food conc 100, days 8 to 10, single campaigns, listed as 1-(triphenylmethyl)imidazole): 5.81 and 5.41
- Late Speed Effect Size [1, 3]: 0.86 and 0.62

Structure (SMILES): NC(=O)c1ccccc1 [Benzamide]
- KA-induced decreases in striatal levels of NAD+ and ATP [2]: partially prevented
- KA-induced lesions and astrogliosis [2]: partially prevented

Structure (SMILES): Clc1ccccc1C(c1ccccc1)(c1ccccc1)N1CCOCC1 [Example 1(f), 4-[(2-Chlorophenyl)-diphenylmethyl]-morpholine]
- melting point: 205 °C

Structure (SMILES): FC(F)(F)c1cccc(C(c2ccccc2)(c2ccccc2)N2CCOCC2)c1 [Example 1(g), 4-[(3-Trifluoromethylphenyl)-diphenylmethyl]-morpholine]
- melting point: 158 to 160 °C
